According to patent publication US20230255864A1, “NOVEL COMPOSITIONS COMBINING HEMP DERIVATIVES AND AT LEAST ONE PEPTIDE AND USE THEREOF” (FRANCE COSMEPHYL-LAB, priority 2020, published 2023):

How the values were obtained:
[1] = tested on: RAW 267.4 murine macrophages; assay: Cell viability of murine macrophages (WST-1 mitochondrial respiration), in parallel with NO release; format: cell-based; details: Mus musculus, RAW267.4; non-linear regression of 3 series of experiments; positive control
Method: (§1) MURINS RAW 267.4 Macrophage cell line (Sigma-Aldrich, No. P6110401, Lot. 091006), low number of passages (less than 50).
(§2) Complete medium: DMEM with stabilized L-glutamine (Dulbecco's Minimum Essential Medium, PAN BIOTECH. Lot 974251) supplemented with Penicillin 100 IU/ml and streptomycin 100 μg/m1 (PAN BIOTECH, Lot 225614), and 10% inactivated calf serum (PAN BIOTECH, Lot P460518), pH 7.2, freshly prepared, stored for less than 3 weeks.
(§3) Cannabidiol (CBD) is diluted in DMSO (10 mg/mL storage solution), and subjected to an ultrasonic bath for 20 minutes. The Neutrazen™ solution is diluted in PBS (Phosphate buffer saline, Sigma-Aldrich).
(§4) RAW 267.4 murine macrophages were inoculated into 48-well tissue culture plates at a concentration of 1.10^5 cells/ml (200 μl/well) and incubated for 24 hours at 37° C. (5% CO2).
(§5) At the end of the incubation period, the culture medium was replaced with 200 μl of medium containing the appropriate concentrations of the material to be tested, and the cells were incubated at 37° C. (5% CO2) for one hour.
(§6) At the end of the incubation period, pro-inflammatory E. coli LPS was added to the cell cultures (1 μg/ml. Then the cells were incubated at 37° C. (5% CO2) for 24 hours.
In parallel with the evaluation of the release of NO, the cell viability was measured to validate the tests. Vital Stain Reagent WST-1 was used to measure cellular mitochondrial respiration. For this, the culture medium was decanted and 100 μl of WST-1 reagent ( 1/10 dilution) were added to each well. After an incubation period of 30 min at 37° C. (5% CO2), the Optical Density (OD) of each well was read at a wavelength of 450 nm by an Infinite M200 Pro fluorescence-luminescence reader (TECAN). The results obtained for the wells treated with the test material were compared with those of the untreated control wells (DMSO, 100% viability) and converted into percentage values.
Inhibition of NO release and inhibition of cell viability were expressed as a percentage relative to the negative controls: […]
(§7) The concentrations of test material causing a 50% decrease in NO release (IC50 (NO release)) and a 50% decrease in cell viability (IC50 (cell viability)) respectively were calculated using TableCurve software Version 2.0.
Analysis of the anti-inflammatory activity and of the cell viability of the cannabidiol/palmitoyl tripeptide-8 (Neutrazen™) association in a mixture by isobologram analysis. For each concentration of Neutrazen™ (0.01, 0.025, 0.05 and 0.1%), different concentrations of CBD are tested (0.01, 0.025, 0.05, 0.1, 0.25, 0.5, 1 and 2.5%) to determine both the production of NO and cell viability.
The results obtained with the different mixtures of CBD and Neutrazen™ made it possible to calculate the pairs of concentrations corresponding to a 50% reduction in the production of NO and a 50% reduction in cell viability.

[2] = tested on: murine macrophages (RAW 267.4 cell line) stimulated with LPS from E. coli; assay: In vitro anti-inflammatory test: inhibition of NO production in LPS-stimulated murine macrophages (Griess reaction); format: cell-based
Excerpt: Low-grade inflammation is strongly implicated in degenerative processes in human skin such as photoaging and atopy. The reduction of low-intensity inflammatory reactions by topical products may be necessary in the event of cutaneous aggression, to obtain optimal healing and restore the physiological balance of human skin. In order to identify new anti-inflammatory candidates, an in vitro anti-inflammatory test was developed with a murine cell line: the murine macrophage test RAW 267.4. This test was used to monitor the inhibitory effects of chemical compounds or natural extracts on the low-intensity inflammatory cascade leading to overproduction of nitrogen oxide (NO) in the endothelial wall of blood vessels.
The study was carried out to evaluate the ability of cannabidiol, palmitoyl tripeptide-8 (active ingredient in Neutrazen™), and their mixture to inhibit the pro-inflammatory cascade leading to the production of NO in murine macrophages stimulated by liposaccharides (LPS).
The in vitro anti-inflammatory test is based on the ability of murine macrophages to generate a strong inflammatory response when stimulated by antigens such as LPS. Immobilized murine macrophages (RAW 267.4 cell line) are stimulated with LPS from E. coli and exposed for 24 hours. At the end of the incubation period, the production of NO is evaluated indirectly by measuring the accumulation of nitrite/nitrate, stable final products of the oxidation of NO, in the culture medium using a method spectrophotometric based on the Griess reaction.
as §1, §2, §3
The negative control: DMSO 1% The positive control: Dexamethasone (Sigma-Aldrich) 1-5-10-50-100 μM.
as §4, §5, §6
The amount of NO released was measured in the culture supernatant by the Griess reaction. 100 μl of the supernatants were transferred into the wells of a 96-well tissue culture plate, and modified Griess reagent (SIGMA-ALDRICH) were added to each well. After a period of 15 min at room temperature, the Optical Density (OD) of each well was read at a wavelength of 540 nm by an Infinite M200 Pro fluorescence-luminescence reader (TECAN).
as §7
The anti-inflammatory ratio corresponds to the ratio between anti-inflammatory activity and toxicity. It is expressed as follows: […]
Analysis of the anti-inflammatory activity and of the cell viability of the cannabidiol/palmitoyl tripeptide-8 (Neutrazen™) association in a mixture by isobologram analysis.

IC50 ([2]; Mus musculus, RAW267.4, non-linear regression of 3 series of experiments, positive control, read-out: IC50-NO release): 2.98 µM
Structure (SMILES): C[C@@H]1C[C@H]2[C@@H]3CCC4=CC(=O)C=C[C@]4(C)[C@@]3(F)[C@@H](O)C[C@]2(C)[C@@]1(O)C(=O)CO [Dexamethasone]
IC50 [1]: 193 ± 4.25 µM
Anti-inflammatory ratio ([2]; ratio between anti-inflammatory activity and toxicity (IC50 NO release and IC50 cell viability)): 64.65
